# Test results from ChEMBL document CHEMBL1201862, “PubChem BioAssay data set” (2004).
# Calls of active or inactive are those of the source.
# Key:
# [1] = target: Large T antigen (Simian virus 40, UniProt P03070); assay type: functional, Betapolyomavirus macacae;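 further: Confirmatory-stage PubChem screen for compounds that inhibit SV40 T antigen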
# [2] = target: Induced myeloid leukemia cell differentiation protein Mcl-1 (Homo sapiens, UniProt Q07820); assay type: functional
# [3] = target: T1, Intestinal-type alkaline phosphatase (Homo sapiens, UniProt P09923); experiment: activation of human intestinal alkaline phosphatase – biochemical, dose response (AID 488873); assay type: functional
# [4] = target: Intestinal-type alkaline phosphatase (Mus musculus, UniProt P24822); experiment: PubChem AID 488785; assay type: functional
# [5] = target: T2, Alkaline phosphatase, tissue-nonspecific isozyme (Homo sapiens, UniProt P05186); experiment: TNAP enzyme inhibition by screening hits, dose response, selectivity assay for mouse IAP inhibitor project, biochemical, human TNAP, uHTS hits (AID 488906); assay type: functional
# T2 sequence (P05186 whole entry): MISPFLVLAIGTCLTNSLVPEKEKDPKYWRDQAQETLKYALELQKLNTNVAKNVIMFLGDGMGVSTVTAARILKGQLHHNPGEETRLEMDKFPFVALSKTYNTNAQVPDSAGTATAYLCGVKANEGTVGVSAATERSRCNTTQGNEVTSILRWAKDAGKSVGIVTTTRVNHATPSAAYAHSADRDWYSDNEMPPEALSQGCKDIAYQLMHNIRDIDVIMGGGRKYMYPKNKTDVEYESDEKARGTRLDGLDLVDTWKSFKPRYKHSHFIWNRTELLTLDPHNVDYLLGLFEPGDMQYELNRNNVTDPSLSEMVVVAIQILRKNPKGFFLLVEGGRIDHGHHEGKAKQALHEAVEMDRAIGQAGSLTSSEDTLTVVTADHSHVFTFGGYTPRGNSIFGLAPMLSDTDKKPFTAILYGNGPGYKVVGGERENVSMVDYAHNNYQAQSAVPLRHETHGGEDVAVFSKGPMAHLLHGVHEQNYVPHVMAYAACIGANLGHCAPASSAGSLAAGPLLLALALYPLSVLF
# [6] = target: Ras and Rab interactor 1/Tyrosine-protein kinase ABL1 (Homo sapiens, UniProt P00519+Q13671); assay type: functional;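 further: biochemical TR-FRET dose-response test measuring inhibition of binding between Rin1 and Abl proteins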
# [7] = target: T3, Caspase-6 (Homo sapiens, UniProt P55212); experiment: human caspase-6 inhibitors, dose response, biochemical, VEID-R110 fluorescence, cherry-pick (AID 720632)
# T3 sequence (P55212 whole entry): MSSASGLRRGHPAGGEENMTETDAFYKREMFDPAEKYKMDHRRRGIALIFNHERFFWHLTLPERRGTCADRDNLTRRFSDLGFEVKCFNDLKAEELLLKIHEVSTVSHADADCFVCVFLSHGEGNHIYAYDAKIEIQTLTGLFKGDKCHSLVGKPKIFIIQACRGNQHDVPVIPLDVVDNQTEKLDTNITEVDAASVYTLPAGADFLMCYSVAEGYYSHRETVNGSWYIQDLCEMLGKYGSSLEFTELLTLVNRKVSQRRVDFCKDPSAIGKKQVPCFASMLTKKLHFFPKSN
# [8] = target: Caspase-7 (Homo sapiens, UniProt P55210); experiment: human caspase-7 inhibitors, dose response, selectivity assay for caspase-6 inhibitor project, biochemical, DEVD-R110 fluorescence, cherry-pick (AID 743295)
# [9] = target: T4, Caspase-3 (Homo sapiens, UniProt P42574); experiment: caspase-3 enzyme inhibitors, selectivity check, dose response, selectivity assay for caspase-6 allosteric inhibitor project, biochemical, fluorescence, cherry-picked samples (AID 743291)
# T4 sequence (P42574 whole entry): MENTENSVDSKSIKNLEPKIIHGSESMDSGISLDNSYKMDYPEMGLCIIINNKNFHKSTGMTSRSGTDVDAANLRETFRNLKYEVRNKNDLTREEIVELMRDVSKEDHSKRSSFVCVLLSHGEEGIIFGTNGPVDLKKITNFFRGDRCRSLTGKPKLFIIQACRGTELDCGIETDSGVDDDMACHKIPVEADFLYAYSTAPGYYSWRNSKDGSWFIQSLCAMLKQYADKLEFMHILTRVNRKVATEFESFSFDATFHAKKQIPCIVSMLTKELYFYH
# [10] = cells; settings: HEK293
# [11] = target: T1, Intestinal-type alkaline phosphatase; experiment: inhibition of human intestinal alkaline phosphatase – biochemical, dose response (AID 488876); assay type: functional
# [12] = target: T5, Small ubiquitin-related modifier 2 (Homo sapiens, UniProt P61956); experiment: SUMO2–SIM peptide binding inhibitors, dose response, selectivity assay for SUMO1 interaction inhibitor project, biochemical, fluorescence polarization, uHTS hits (AID 624385); assay type: functional; settings: read-out: IC50_Mean
# [13] = target: T6, Small ubiquitin-related modifier 1 (Homo sapiens, UniProt P63165); experiment: inhibitors of SUMO1 peptide binding, dose response, biochemical, fluorescence polarization, uHTS hits (AID 624382); assay type: functional; settings: read-out: IC50_Mean
# [14] = target: T5, Small ubiquitin-related modifier 2; experiment: inhibitors of SUMO2 protein-protein interaction, dose response, selectivity assay for SUMO1 interaction inhibitor project, biochemical, FRET, human SUMO2, uHTS hits (AID 624384); assay type: functional; settings: read-out: IC50_Mean
# [15] = target: T6, Small ubiquitin-related modifier 1; experiment: inhibitors of SUMO1 partner interactions, dose response, biochemical, FRET (AID 624383); assay type: functional; settings: read-out: IC50_Mean
# [16] = target: T7, Rac GTPase-activating protein 1 (Homo sapiens, UniProt Q9H0H5); experiment: MgcRacGAP GTPase-activating activity inhibitors, confirmation, biochemical, ADP Hunter fluorescence, primary and confirmatory (AID 624330); assay type: functional
# T7 sequence (Q9H0H5 whole entry): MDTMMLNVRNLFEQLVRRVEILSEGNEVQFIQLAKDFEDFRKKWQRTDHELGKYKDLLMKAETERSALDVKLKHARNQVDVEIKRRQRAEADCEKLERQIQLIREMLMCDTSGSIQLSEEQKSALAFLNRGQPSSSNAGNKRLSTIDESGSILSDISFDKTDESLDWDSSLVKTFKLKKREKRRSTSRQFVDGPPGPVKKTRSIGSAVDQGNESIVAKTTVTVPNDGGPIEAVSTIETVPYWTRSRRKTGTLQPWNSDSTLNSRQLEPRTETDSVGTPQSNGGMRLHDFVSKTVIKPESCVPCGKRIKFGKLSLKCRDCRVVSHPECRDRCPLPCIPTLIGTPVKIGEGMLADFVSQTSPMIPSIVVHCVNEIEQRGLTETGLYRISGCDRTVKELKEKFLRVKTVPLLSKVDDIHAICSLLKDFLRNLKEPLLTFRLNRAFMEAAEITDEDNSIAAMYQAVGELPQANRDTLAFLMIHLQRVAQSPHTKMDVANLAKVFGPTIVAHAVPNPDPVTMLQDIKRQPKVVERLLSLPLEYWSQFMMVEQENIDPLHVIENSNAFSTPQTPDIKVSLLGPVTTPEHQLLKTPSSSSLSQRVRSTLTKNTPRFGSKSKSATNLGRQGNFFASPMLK
# [17] = target: T8, Histone-lysine N-methyltransferase NSD2 (Homo sapiens, UniProt O96028); assay type: biochemical
# T8 sequence (O96028 whole entry): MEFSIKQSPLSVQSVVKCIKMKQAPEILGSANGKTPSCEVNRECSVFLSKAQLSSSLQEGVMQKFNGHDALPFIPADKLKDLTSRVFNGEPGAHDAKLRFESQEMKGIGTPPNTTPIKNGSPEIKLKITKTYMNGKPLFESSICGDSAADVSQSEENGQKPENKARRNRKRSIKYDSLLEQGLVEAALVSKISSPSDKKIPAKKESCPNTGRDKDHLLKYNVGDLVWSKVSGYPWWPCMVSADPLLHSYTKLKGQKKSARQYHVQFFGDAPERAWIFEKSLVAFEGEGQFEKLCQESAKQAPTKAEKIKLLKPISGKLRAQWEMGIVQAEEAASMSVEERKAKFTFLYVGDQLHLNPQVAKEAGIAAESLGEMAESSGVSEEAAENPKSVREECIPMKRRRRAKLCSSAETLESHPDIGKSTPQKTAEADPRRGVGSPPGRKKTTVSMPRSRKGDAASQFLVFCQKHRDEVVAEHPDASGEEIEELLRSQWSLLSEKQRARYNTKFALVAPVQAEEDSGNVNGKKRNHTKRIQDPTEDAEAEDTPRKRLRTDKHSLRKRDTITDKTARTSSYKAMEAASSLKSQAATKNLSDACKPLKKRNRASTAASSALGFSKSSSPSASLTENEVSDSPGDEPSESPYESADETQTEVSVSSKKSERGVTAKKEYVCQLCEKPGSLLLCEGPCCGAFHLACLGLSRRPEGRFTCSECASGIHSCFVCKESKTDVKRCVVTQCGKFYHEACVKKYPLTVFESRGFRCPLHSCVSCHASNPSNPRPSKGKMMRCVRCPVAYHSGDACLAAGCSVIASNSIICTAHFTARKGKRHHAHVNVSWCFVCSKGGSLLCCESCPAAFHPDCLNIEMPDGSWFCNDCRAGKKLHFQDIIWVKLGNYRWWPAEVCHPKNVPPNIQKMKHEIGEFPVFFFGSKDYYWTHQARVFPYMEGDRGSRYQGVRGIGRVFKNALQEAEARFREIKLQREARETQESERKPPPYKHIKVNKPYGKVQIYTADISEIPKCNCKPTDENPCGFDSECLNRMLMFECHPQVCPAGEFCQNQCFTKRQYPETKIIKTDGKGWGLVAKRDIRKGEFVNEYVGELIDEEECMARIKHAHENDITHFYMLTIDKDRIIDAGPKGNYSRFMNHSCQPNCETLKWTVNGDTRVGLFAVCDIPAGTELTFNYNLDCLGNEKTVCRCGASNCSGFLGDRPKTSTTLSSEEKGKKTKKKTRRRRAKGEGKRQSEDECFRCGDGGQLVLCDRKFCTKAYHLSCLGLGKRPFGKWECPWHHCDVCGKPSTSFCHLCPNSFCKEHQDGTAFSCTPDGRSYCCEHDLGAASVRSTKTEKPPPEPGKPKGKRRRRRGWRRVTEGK
# [18] = target: Caspase-8 (Homo sapiens, UniProt Q14790); experiment: caspase-8 inhibition counter-screen, dose response, selectivity assay for caspase-6 inhibitor project, biochemical, Z-IETD-R110 fluorescence, cherry-picked samples (AID 743294)
# [19] = target: T9, DNA repair protein RAD52 homolog (Homo sapiens, UniProt P43351); assay type: functional, biochemical
# T9 sequence (P43351 whole entry): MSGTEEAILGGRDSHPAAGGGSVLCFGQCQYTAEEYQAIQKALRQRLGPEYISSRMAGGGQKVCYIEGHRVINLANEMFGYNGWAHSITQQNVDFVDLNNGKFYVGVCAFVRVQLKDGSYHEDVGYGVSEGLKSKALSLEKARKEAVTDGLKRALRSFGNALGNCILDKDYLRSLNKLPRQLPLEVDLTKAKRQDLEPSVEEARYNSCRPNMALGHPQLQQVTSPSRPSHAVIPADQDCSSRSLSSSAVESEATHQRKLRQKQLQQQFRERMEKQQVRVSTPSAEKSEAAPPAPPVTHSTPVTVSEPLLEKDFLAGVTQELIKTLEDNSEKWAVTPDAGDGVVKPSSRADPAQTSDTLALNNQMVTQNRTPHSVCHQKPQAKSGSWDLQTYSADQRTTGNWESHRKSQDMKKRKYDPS
# [20] = target: COUP transcription factor 2 (Homo sapiens, UniProt P24468); experiment: Luminescence-based cell-based high throughput dose response assay to identify inhibitors of COUP-TFII (NR2F2).; assay type: functional;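 further: HEK293 cells transiently cotransfected with COUP-TFII expression vector and reporter; luciferase reporter luminescence driven by COUP-TFII from the pX2-168 reporter plasmid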
# [21] = target: Eukaryotic translation initiation factor 4E (Mus musculus, UniProt P63073); experiment: eIF4E–eIF4G protein interaction inhibitors, dose response, biochemical, TR-FRET (AID 855); assay type: functional;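 further: potency for disrupting eIF4E binding to eIF4GI seen as loss of FRET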
# [22] = ADAM10 inhibitors, peptide cleavage, dose response, biochemical, QFRET (AID 743254);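 further: ADAM10 enzyme with the DM2 quenched FRET peptide as substrate; EDANS fluorescence gain as the protease cuts the substrate; inhibitor potency against ADAM10 proteolytic activity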
# [23] = target: Disintegrin and metalloproteinase domain-containing protein 17 (Homo sapiens, UniProt P78536); experiment: ADAM17 protease inhibitors, dose response, counter-screen for ADAM10 exosite inhibitor project, biochemical, quenched FRET substrate (AID 743253)
# [24] = HepG2 cell cytotoxicity, dose response, cytotoxicity control, ATP luminescence, cherry-pick, set 6 (AID 1053125); assay type: functional, cell-based
# [25] = target: NAD-dependent protein deacylase sirtuin-5, mitochondrial (Homo sapiens, UniProt Q9NXA8); experiment: SIRT5 desuccinylase inhibitors, dose response, biochemical, fluorescence imaging, cherry-pick, set 5 (AID 720591);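 further: desuccinylation of succinyl peptide AMC substrate read as fluorescence after trypsin release; potency of inhibitors that lower fluorescence and may act on trypsin instead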
# Sequence of NAD-dependent protein deacylase sirtuin-5, mitochondrial (Q9NXA8 whole entry): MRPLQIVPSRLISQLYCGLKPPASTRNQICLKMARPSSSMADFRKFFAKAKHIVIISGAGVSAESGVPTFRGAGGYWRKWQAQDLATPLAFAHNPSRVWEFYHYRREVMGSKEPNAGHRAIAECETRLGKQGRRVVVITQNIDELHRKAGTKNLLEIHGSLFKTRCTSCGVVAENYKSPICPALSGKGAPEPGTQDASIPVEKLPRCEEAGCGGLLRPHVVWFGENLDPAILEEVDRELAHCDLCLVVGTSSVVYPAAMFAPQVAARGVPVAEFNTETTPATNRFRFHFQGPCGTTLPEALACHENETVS
# T1 sequence (P09923 whole entry): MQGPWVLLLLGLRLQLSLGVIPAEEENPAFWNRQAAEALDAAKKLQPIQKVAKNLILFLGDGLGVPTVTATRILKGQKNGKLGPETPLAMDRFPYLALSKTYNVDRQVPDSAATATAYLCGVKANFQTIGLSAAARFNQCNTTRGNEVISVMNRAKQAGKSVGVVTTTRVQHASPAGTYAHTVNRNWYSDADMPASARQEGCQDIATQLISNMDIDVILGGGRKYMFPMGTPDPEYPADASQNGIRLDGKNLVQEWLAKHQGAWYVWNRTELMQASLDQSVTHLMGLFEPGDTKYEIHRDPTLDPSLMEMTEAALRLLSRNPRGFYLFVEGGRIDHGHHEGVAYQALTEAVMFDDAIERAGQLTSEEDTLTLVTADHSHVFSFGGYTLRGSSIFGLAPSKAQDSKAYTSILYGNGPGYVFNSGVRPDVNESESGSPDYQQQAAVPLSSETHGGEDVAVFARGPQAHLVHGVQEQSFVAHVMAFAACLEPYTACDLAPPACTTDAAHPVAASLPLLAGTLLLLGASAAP
# Sequence of Intestinal-type alkaline phosphatase (Mus musculus, UniProt P24822) (P24822 whole entry): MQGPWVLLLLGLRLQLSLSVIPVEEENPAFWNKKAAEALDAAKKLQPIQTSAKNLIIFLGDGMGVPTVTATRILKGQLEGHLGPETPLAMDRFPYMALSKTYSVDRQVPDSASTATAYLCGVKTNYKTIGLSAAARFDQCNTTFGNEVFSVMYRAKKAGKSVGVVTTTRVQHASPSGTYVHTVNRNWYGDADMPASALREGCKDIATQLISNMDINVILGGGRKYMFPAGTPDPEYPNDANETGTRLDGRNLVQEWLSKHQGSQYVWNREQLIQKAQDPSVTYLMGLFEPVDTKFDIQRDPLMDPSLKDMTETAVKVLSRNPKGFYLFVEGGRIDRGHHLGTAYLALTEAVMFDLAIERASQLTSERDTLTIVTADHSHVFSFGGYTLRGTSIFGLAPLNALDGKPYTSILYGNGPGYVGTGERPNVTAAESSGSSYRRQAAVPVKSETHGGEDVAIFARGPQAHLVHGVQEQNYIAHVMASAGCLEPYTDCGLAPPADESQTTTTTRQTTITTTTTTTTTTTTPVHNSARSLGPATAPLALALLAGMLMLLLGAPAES
# T5 sequence (P61956 whole entry): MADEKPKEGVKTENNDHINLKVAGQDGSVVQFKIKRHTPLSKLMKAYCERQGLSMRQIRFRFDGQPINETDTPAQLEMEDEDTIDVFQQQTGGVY
# T6 sequence (P63165 whole entry): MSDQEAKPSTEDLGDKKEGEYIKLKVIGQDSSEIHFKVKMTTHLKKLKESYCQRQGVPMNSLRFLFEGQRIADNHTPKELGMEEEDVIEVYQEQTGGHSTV
# Sequence of Induced myeloid leukemia cell differentiation protein Mcl-1 (Q07820 whole entry): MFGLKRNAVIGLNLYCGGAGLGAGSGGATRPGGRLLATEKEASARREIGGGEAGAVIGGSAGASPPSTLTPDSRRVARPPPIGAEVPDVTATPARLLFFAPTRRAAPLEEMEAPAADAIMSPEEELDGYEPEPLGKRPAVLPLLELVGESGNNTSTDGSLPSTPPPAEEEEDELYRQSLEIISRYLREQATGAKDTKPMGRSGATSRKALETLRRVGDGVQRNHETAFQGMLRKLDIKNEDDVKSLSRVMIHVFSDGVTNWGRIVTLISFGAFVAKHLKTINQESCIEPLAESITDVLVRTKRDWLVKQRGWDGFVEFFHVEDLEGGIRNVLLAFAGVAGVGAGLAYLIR
# Sequence of Caspase-7 (P55210 24-198 limits assumed): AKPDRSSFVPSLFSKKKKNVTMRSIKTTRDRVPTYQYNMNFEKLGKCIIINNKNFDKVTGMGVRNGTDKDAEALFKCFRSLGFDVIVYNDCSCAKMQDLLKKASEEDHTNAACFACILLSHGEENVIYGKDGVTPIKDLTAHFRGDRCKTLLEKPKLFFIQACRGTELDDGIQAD
# Sequence of Caspase-7 (P55210 207-303 limits assumed): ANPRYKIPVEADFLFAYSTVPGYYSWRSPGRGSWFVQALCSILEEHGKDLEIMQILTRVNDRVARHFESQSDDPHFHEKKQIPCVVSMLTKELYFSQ
# Sequence of Eukaryotic translation initiation factor 4E (P63073 whole entry): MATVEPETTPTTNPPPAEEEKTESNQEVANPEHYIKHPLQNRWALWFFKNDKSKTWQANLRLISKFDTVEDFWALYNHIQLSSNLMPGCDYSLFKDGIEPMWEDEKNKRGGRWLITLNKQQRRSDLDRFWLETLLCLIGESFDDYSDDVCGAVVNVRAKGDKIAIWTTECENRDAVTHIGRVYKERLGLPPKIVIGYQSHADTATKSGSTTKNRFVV
# Sequence of Large T antigen (P03070 whole entry): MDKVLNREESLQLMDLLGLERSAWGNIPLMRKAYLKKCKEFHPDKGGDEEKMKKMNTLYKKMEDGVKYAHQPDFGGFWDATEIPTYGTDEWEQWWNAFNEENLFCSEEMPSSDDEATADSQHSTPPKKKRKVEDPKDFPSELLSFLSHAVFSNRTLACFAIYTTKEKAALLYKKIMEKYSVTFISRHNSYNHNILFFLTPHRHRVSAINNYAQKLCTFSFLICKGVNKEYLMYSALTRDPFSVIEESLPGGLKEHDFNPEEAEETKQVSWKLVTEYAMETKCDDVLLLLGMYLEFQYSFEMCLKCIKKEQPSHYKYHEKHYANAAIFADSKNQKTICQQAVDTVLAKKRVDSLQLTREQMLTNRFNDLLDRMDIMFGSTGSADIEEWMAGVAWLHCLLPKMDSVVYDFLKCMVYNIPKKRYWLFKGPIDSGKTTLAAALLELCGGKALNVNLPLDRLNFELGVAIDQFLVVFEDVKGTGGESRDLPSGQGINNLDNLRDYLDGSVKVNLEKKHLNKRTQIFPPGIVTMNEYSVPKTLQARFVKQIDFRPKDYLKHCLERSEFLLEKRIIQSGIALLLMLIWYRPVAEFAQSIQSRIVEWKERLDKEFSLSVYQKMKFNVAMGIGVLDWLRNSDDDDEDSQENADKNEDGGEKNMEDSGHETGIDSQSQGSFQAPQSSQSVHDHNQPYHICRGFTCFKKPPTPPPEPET
# Sequence of Disintegrin and metalloproteinase domain-containing protein 17 (P78536 whole entry, the tested form may be a part): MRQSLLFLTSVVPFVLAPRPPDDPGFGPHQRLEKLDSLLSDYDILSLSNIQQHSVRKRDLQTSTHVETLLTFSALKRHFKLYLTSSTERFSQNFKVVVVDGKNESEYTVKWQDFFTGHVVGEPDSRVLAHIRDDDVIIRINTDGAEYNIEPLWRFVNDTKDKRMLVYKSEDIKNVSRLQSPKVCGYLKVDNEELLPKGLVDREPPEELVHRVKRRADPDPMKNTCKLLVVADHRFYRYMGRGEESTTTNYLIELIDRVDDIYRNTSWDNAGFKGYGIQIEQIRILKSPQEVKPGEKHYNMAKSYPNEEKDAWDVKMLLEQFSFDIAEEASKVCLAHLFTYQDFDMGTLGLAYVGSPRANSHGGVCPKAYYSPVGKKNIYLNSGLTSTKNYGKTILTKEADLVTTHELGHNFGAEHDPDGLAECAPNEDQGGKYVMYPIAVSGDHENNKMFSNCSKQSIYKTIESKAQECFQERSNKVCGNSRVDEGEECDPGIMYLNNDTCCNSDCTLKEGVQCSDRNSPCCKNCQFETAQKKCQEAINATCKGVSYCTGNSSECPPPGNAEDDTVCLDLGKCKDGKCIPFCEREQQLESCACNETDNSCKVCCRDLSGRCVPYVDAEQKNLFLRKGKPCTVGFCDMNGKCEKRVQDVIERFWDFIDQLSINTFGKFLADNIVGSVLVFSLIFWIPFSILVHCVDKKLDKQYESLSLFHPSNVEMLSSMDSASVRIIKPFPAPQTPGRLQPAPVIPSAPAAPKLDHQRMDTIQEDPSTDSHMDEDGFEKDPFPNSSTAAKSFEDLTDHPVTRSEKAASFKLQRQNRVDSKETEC
# Sequence of Caspase-8 (Q14790 217-374 limits assumed): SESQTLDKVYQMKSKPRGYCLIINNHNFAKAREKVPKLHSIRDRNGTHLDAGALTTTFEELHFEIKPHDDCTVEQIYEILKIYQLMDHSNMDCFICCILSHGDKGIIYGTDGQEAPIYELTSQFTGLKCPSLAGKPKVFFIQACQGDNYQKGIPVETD
# Sequence of Caspase-8 (Q14790 385-479 limits assumed): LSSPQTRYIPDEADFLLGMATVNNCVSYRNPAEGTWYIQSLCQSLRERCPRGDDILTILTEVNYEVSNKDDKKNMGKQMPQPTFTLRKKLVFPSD
# Sequence of COUP transcription factor 2 (P24468 whole entry): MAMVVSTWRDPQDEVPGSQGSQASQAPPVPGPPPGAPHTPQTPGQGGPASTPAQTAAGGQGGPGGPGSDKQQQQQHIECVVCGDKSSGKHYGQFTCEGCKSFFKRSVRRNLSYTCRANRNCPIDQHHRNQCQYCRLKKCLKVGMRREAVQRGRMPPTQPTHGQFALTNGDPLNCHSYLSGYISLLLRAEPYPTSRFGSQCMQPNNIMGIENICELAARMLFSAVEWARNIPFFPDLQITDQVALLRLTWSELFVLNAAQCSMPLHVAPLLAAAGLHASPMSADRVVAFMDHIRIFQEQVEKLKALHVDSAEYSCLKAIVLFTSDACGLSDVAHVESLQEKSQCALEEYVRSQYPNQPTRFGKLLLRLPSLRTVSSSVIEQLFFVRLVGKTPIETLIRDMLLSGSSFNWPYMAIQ
smiles,measurement,setting,value
O=C(CCO)c1ccc(O)cc1,IC50,[1],28.8 µM (active)
same,IC50,[2],5.16 µM (active)
same,EC50,[3],11.3 µM (active)
same,IC50,[4],> 100 µM (inactive)
same,IC50,[5],> 100 µM (inactive)
same,IC50,[6],11.9 µM (inactive)
same,AC50,[7],1.32 µM (active)
same,AC50,[8],9.65 µM (active)
same,AC50,[9],31.7 µM (active)
C1CCNCC1.N#CC1=C(N)Oc2cc(O)ccc2C1c1ccc2c(c1)OCO2 (stereo not given),AC50,[10],> 52 µM (inactive)
O=C(COC(=O)c1ccccc1)Nc1ncc([N+](=O)[O-])s1,IC50,[4],< 0.195 µM (active)
same,IC50,[5],1.06 µM (active)
same,IC50,[11],80.6 µM (active)
same,IC50,[12],14.7 µM (active)
same,IC50,[13],9.39 µM (active)
same,IC50,[14],> 66 µM (inactive)
same,IC50,[15],51.7 µM (inactive)
same,IC50,[16],50.2 µM (active)
same,AC50,[7],0.951 µM (active)
same,AC50,[17],2.74 µM (active)
same,AC50,[8],16.3 µM (active)
same,AC50,[18],61.3 µM (active)
NC(S)=NN=C1c2cc(OCCN3CCOCC3)ccc2-c2ccc(OCCN3CCOCC3)cc21,AC50,[19],1.07 µM (active)
same,IC50,[20],5.24 µM (active)
Oc1cc2c(cc1C(c1ccc(Cl)c(Cl)c1)N1CCCC1)OCO2 (stereo not given),IC50,[2],4.76 µM (not active)
same,IC50,[21],50 µM (inactive)
same,IC50,[22],4.72 µM (active)
same,IC50,[23],20 µM (inactive)
CCOC(=O)c1cc2c(=O)n3ccccc3nc2n(C(C)C)/c1=N/C(=O)c1ccco1,AC50,[24],> 52 µM (inactive)
O=C(Cn1nc(-c2ccc(Cl)cc2)ccc1=O)NCC1COCCO1 (stereo not given),AC50,[25],> 30 µM (inactive)
